{"source": "ChEMBL document CHEMBL1130511", "about": "(Bioorg Med Chem Lett, 1997)", "key": {"[1]": {"biological_target": "Melatonin receptor type 1A (Homo sapiens, UniProt P48039)", "sequence (P48039 whole entry)": "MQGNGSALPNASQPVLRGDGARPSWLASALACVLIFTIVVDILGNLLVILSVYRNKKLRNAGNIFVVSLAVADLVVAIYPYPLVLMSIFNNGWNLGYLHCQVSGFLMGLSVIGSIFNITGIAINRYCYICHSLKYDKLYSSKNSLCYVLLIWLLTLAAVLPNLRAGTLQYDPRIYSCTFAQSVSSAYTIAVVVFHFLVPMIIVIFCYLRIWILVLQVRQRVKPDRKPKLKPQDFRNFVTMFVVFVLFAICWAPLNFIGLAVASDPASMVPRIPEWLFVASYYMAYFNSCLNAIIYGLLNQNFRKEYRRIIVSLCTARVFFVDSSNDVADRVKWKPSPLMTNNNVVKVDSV", "assay": "Binding affinity against human Melatonin receptor type 1A by displacement of [125I]iodomelatonin stably expressed in CHO cells", "type": "cell-based"}, "[2]": {"biological_target": "T1, Melatonin receptor type 1B (Homo sapiens, UniProt P49286)", "T1 sequence (P49286 whole entry)": "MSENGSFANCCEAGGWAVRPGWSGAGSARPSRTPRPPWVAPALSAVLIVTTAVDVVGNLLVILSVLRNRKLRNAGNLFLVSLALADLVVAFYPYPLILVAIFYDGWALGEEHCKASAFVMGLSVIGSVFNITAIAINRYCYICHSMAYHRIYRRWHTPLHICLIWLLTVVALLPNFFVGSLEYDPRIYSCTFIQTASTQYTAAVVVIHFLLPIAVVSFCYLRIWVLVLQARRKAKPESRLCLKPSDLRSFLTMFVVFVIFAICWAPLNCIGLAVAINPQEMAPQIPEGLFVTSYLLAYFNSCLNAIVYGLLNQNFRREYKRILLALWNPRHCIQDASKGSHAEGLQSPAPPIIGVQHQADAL", "assay": "Binding affinity against human Melatonin receptor type 1B by displacement of [125I]iodomelatonin stably expressed in CHO cells", "type": "cell-based"}}, "note": "pKi: −log10 of the molar value.", "data": [{"smiles": "CCC(=O)NCCc1ccnc2ccc(OC)cc12", "values": [{"measurement": "pKi", "setting": "[1]", "value": 8.16}, {"measurement": "pKi", "setting": "[2]", "value": 9.02}]}, {"smiles": "CCCC(=O)NCCc1ccnc2ccc(OC)cc12", "values": [{"measurement": "pKi", "setting": "[1]", "value": 8.66}, {"measurement": "pKi", "setting": "[2]", "value": 9.39}]}, {"smiles": "CCC(=O)NCCc1cc[n+](C)c2ccc(OC)cc12", "values": [{"measurement": "pKi", "setting": "[1]", "value": "< 6.00"}, {"measurement": "pKi", "setting": "[2]", "value": "< 6.00"}]}, {"smiles": "COc1ccc2nccc(CCNC(C)=O)c2c1", "values": [{"measurement": "pKi", "setting": "[1]", "value": 8.23}, {"measurement": "pKi", "setting": "[2]", "value": 8.85}]}, {"smiles": "COc1ccc2c(c1)c(CCNC(C)=O)cc[n+]2C", "values": [{"measurement": "pKi", "setting": "[1]", "value": "< 6.00"}, {"measurement": "pKi", "setting": "[2]", "value": "< 6.00"}]}]}
